Entries after “also recorded” stand apart in the source; their conditions may differ.
How the values were obtained:
IL-6 = experiment: Luminex cytokine levels in BAL: IL-6; details: vs vehicle disease control
[1] = Body weight change from day -2 in LPS-induced lung inflammation model; assay type: in vivo, mice; details: vs vehicle disease control; for body weight change from day -2: 6 hours post-LPS
Excerpt: (§1) All animals survived to study termination.
Body weight measurements were collected and the animals were euthanized for necropsy and terminal sample collection on day 0 or day 1.
The mice were weighed for randomization on study day −2 and were weighed again on day 0.

TNFα = experiment: Luminex cytokine levels in BAL: TNFα; assay type: in vivo, mice; details: vs vehicle disease control
Excerpt: as §1
• 1. […] Seal the plate with a plate sealer.

[2] = system: hospitalized patients with coronavirus disease 2019 (COVID-19); experiment: Randomized, double-blind, placebo-controlled clinical trial for prevention and treatment of ARDS; assay type: in vivo, human; details: 900 mg once daily for 14 days
Description: This example describes use of 5-(3-chlorophenyl)-3-hydroxypyridine-2-carbonyl]amino}acetic acid (vadadustat) in a multicenter, randomized, double-blind, placebo-controlled Bayesian adaptive clinical for the prevention and treatment of acute respiratory distress syndrome (ARDS) in hospitalized patients with coronavirus disease 2019 (COVID-19).
Following screening, patients are randomized in a 1:1 ratio to either vadadustat 900 mg or placebo. Randomization is stratified by site, and MSOFA score at baseline (<4 and >4).
A subject may receive vadadustat (e.g., 900 mg vadadustat as 6 tablets once daily) for 14 days and without regard for meals at approximately the same time each day. Tablets can be crushed using a pill crusher and administered to an intubated patient through a nasogastric tube.
Efficacy may also be assessed according to any of the following (including any combination thereof): • 1. The proportion of patients at day 14 who are dead (8) or hospitalized, on invasive mechanical ventilation or ECMO (7) or hospitalized, on non-invasive ventilation or high flow oxygen devices (6) on the NIAID-OS. • 2. Proportions of patients with a score of 0 at 14 days on the MSOFA (Modified Sequential Organ Failure Assessment) scale:
• 3. Average MSOFA scores at day 7 and day 14. • 4. Proportion of patients who develop ARDS or experienced increased ARDS severity from baseline based on the Berlin scale. • 5. Ventilator-free survival at day 7 and day 14. • 6. Overall survival at day 7 and day 14. • 7. Proportion of patients with hypotension (MAP (Mean Arterial Pressure)<70 mm Hg or requirement for inotropes or vasopressors to maintain blood pressure) at day 7 and day 14. • 8. Proportion of patients with acute kidney injury at day 7 and day 14. • 9. Time to hospital discharge.

[3] = 100 mg/kg PO QD days -2 to 0 (final dose 1 h pre-LPS), 6 hours post-LPS
[4] = 100 mg/kg PO QD days -2 to 0 (final dose 7 h post-LPS), 24 hours post-LPS
[5] = 100 mg/kg PO single dose 1 h post-LPS, 8 hours post-LPS
[6] = 300 mg/kg PO single dose 1 h post-LPS, 8 hours post-LPS
[7] = day 7 and day 14, compared to placebo

## O=C(O)CNC(=O)c1ncc(-c2cccc(Cl)c2)cc1O [Compound 1, {[5-(3-chlorophenyl)-3-hydroxypyridine-2-carbonyl]amino}acetic acid]
IL-6; [3]
  IL-6 levels in BAL fluids: decrease in IL-6 levels at 6 hours post-LPS compared to vehicle disease control, though not statistically significant; also recorded: did not differ statistically
IL-6; [4]
  IL-6 levels in BAL fluids: Significantly increased; also recorded: significant increases
IL-6; [5]
  IL-6 levels in BAL fluids: decrease in IL-6 and TNFα levels at 8 hours post-LPS compared to vehicle disease control, though not statistically significant; also recorded: no significant differences
IL-6; 300 mg/kg PO QD days -2 to 0 (final dose 1 h pre-LPS), 6 hours post-LPS
  IL-6 levels in BAL fluids: decrease in IL-6 levels at 6 hours post-LPS compared to vehicle disease control, though not statistically significant
IL-6; [6]
  IL-6 levels in BAL fluids: decrease in IL-6 and TNFα levels at 8 hours post-LPS compared to vehicle disease control, though not statistically significant; also recorded: no significant differences
[1]; 100 mg/kg PO QD days -2 to 0 (final dose 7 h post-LPS, 4 doses), 24 hours post-LPS
  absolute body weight change: did not differ statistically
[1]; [5]
  absolute body weight change: no significant differences
[1]; 300 mg/kg PO QD days -2 to 0 (final dose 1 h pre-LPS)
  body weight change from day -2: Significantly increased body weight loss; also recorded: statistically significant absolute weight loss
[1]; 300 mg/kg PO QD days -2 to 0 (final dose 7 h post-LPS, 4 doses), 24 hours post-LPS
  absolute body weight change: did not differ statistically
[1]; [6]
  absolute body weight change: no significant differences
TNFα; [3]
  TNFα levels in BAL fluids: did not differ statistically
TNFα; [4]
  TNFα levels in BAL fluids: Significantly increased; also recorded: significant increases
TNFα; [5]
  TNFα levels in BAL fluids: decrease in IL-6 and TNFα levels at 8 hours post-LPS compared to vehicle disease control, though not statistically significant; also recorded: no significant differences
TNFα; [6]
  TNFα levels in BAL fluids: decrease in IL-6 and TNFα levels at 8 hours post-LPS compared to vehicle disease control, though not statistically significant; also recorded: no significant differences
[2]; at 14 days, compared to placebo
  proportions of patients with a score of 0 on the MSOFA: an increase
[2]; compared to placebo
  proportion of patients who develop ARDS or experienced increased ARDS severity from baseline based on the Berlin scale: a lower or a reduction
[2]; [7]
  average MSOFA scores: a lower or a reduction
  overall survival: a greater or an increase
  proportion of patients with hypotension (MAP <70 mm Hg or requirement for inotropes or vasopressors): a lower or a reduction
  ventilator-free survival: a greater or an increase
[2]; day 7 and day 14, versus placebo
  proportion of patients with acute kidney injury: a lower or a reduction
[2]; day 14, compared to placebo
  proportion of patients who are dead (8), on invasive mechanical ventilation or ECMO (7) or on non-invasive ventilation or high flow oxygen devices (6) on the NIAID-OS: a lower or a reduction
[2]; versus placebo
  time to hospital discharge: a shorter or a reduction

## C[C@@H]1C[C@H]2[C@@H]3CCC4=CC(=O)C=C[C@]4(C)[C@@]3(F)[C@@H](O)C[C@]2(C)[C@@]1(O)C(=O)CO [dexamethasone, reference compound]
[1]; 3 mg/kg PO 1x 1 h pre-LPS
  body weight change from day -2: did not differ statistically

— patent publication US20250352527A1, “METHODS FOR TREATING VIRAL INFECTIONS, ORGAN INJURY, AND RELATED CONDITIONS” (Akebia Therapeutics, Inc., priority 2021, published 2025)
